The values below come from patent US12187758B2 (ROME Therapeutics, Inc., priority 2022, dated 2025).

Assay type in all cases: cell-based
In test [1] the test system is THP1-Dual KO-TREX1 cells. Description: THP1 TREX1 KO inhibition assay (type 1 interferon response). The note with it: Homo sapiens, 144 h, type 1 interferon (QUANTI-LUC), 1 μM 5-aza-2′-deoxycytidine, six days. A digest of the protocol: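 THP1-Dual KO-TREX1 cells were treated with a dose titration of compound, alone or with 1 μM 5-aza-2′-deoxycytidine, for six days at 37 °C. Type 1 interferon was read as secreted luciferase (QUANTI-LUC) in the supernatant, and viability by CellTiter-Glo luminescence.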

A short description of test [2]: Mitochondria toxicity assay with PC3 cells, in-cell ELISA COX-1. Particulars: 5 days treatment. Put shortly: (§1)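 This in-cell ELISA was run on fixed, permeabilized PC3 cells after 5-day exposure to titrated compound, with cytotoxicity measured on a duplicate plate. Results are reported as categories A (<1.0 μM) to E (>100.0 μM).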
Background: An ELISA detects its analyte on a solid surface through an enzyme-linked reagent.

In test [3] the test system is SDH-A (succinate dehydrogenase-A). Kind of test: Mitochondria toxicity assay with PC3 cells, in-cell ELISA SDH-A. The note with it: 5 days treatment. A digest of the protocol:
as §1

Test [4] concerns PC3 cells. Description: Mitochondria toxicity assay with PC3 cells, cytotoxicity (Cell Titer Glo). Particulars: Homo sapiens, PC-3, 120 h, 5 days treatment. Put shortly: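 Cytotoxicity reported in μM bins, A <1.0 through E >100.0. Measured via Cell Titer Glo luminescence (30 min, room temperature) after 5-day dose-titration treatment of PC3 cells, grown in F-12K/10% FBS, at 37° C, 5% CO2.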

As usually defined, the IC50 is the concentration that gives 50% inhibition. As for `C#C[C@]1(CO)O[C@@H](n2cc(F)c(N)nc2=O)C[C@@H]1O` [Compound 107, 4-amino-1-((2R,4S,5R)-5-ethynyl-4-hydroxy-5-(hydroxymethyl)tetrahydro-furan-2-yl)-5-fluoropyrimidin-2(1H)-one], the IC50 in test [1] is above 1 µM; in test [2] it was above 100 µM; in test [3], above 100 µM; in test [4], above 100 µM.
With `[N-]=[N+]=N[C@]1(CO)O[C@@H](n2cnc3c(=O)[nH]c(N)nc32)C[C@@H]1O` [Compound 108, 2-amino-9-((2R,4S,5R)-5-azido-4-hydroxy-5-(hydroxymethyl)tetrahydro-furan-2-yl)-1,9-dihydro-6H-purin-6-one], the IC50 in test [1] was in the range of 0.25 to 1 µM; in test [2], 1 to 10 µM; in test [3], 10 to 50 µM; in test [4], 1 to 10 µM.
On to `C=C[C@]1(CO)O[C@@H](n2cnc3c(N)nc(F)nc32)C[C@@H]1O` [Compound 109, (2R,3S,5R)-5-(6-amino-2-fluoro-9H-purin-9-yl)-2-(hydroxymethyl)-2-vinyltetrahydrofuran-3-ol], for which the IC50 in test [1] was above 1 µM; in test [2] it was 1 to 10 µM; in test [3] it was 1 to 10 µM; in test [4] it was 1 to 10 µM.
With `Nc1ccn([C@H]2C[C@H](O)[C@](CO)(C(F)F)O2)c(=O)n1` [Compound 110, 4-amino-1-((2R,4S,5R)-5-(difluoromethyl)-4-hydroxy-5-(hydroxymethyl)-tetrahydrofuran-2-yl)pyrimidin-2(1H)-one], the IC50 was above 1 µM in test [1], above 100 µM in test [2], above 100 µM in test [3] and above 100 µM in test [4].
`Nc1ccn([C@@H]2O[C@H](CO)[C@@H](O)C2(F)F)c(=O)n1` [Compound 111, 4-amino-1-((2R,4R,5R)-3,3-difluoro-4-hydroxy-5-(hydroxymethyl)tetrahydro-furan-2-yl)pyrimidin-2(1H)-one]: the IC50 in test [1] was 0.05 to 0.1 µM; in test [2], below 1 µM; in test [3] it was below 1 µM; in test [4], below 1 µM.
For `C#C[C@]1(CO)O[C@@H](n2cc(F)c(N)nc2=O)[C@@H](F)[C@@H]1O` [Compound 112, 4-amino-1-((2R,3S,4R,5R)-5-ethynyl-3-fluoro-4-hydroxy-5-(hydroxymethyl)tetrahydrofuran-2-yl)-5-fluoropyrimidin-2(1H)-one], the IC50 in test [1] was above 1 µM; in test [2], below 1 µM; in test [3], below 1 µM; in test [4] it was above 100 µM.
As for `Nc1ccn([C@@H]2O[C@@](CO)(CF)[C@@H](O)[C@@H]2F)c(=O)n1` [Compound 113, 4-amino-1-((2R,3S,4R,5R)-3-fluoro-5-(fluoromethyl)-4-hydroxy-5-(hydroxymethyl)-tetrahydrofuran-2-yl)pyrimidin-2(1H)-one], the IC50 in test [1] was above 1 µM; in test [2], below 1 µM; in test [3] it was below 1 µM; in test [4], below 1 µM.
For the compound `Nc1ccn([C@@H]2O[C@@](CO)(CCl)[C@@H](O)[C@@H]2O)c(=O)n1` [Compound 114, 4-amino-1-((2R,3S,4S,5R)-5-(chloromethyl)-3,4-dihydroxy-5-(hydroxymethyl)tetrahydro-furan-2-yl)pyrimidin-2(1H)-one], the IC50 in test [1] was above 1 µM; in test [2] it was above 100 µM; in test [3], above 100 µM; in test [4], above 100 µM.
With `CC[C@]1(CO)O[C@@H](n2cnc3c(=O)[nH]c(N)nc32)C[C@@H]1O` [Compound 115, 2-amino-9-((2R,4S,5R)-5-ethyl-4-hydroxy-5-(hydroxymethyl)tetrahydro-furan-2-yl)-1,9-dihydro-6H-purin-6-one], the IC50 was above 1 µM in test [1], 1 to 10 µM in test [2], 1 to 10 µM in test [3] and 1 to 10 µM in test [4].
As to `Nc1ccn([C@@H]2O[C@@](CO)(CCl)[C@@H](O)C2(F)F)c(=O)n1` [Compound 119, 4-amino-1-((2R,4R,5R)-5-(chloromethyl)-3,3-difluoro-4-hydroxy-5-(hydroxymethyl)tetrahydrofuran-2-yl)pyrimidin-2(1H)-one], the IC50 in test [1] was above 1 µM; in test [2] it was 1 to 10 µM; in test [3] it was 1 to 10 µM; in test [4] it was 1 to 10 µM.
Take `Nc1nc(=O)n([C@H]2C[C@H](O)[C@](CO)(C3CC3)O2)cc1F` [Compound 120, 4-amino-1-[(2R,4S,5R)-5-cyclopropyl-4-hydroxy-5-(hydroxymethyl)oxolan-2-yl]-5-fluoropyrimidin-2-one]: the IC50 in test [1] was above 1 µM; in test [2] it was above 100 µM; in test [3], above 100 µM; in test [4], above 100 µM.
With `Nc1ccn([C@@H]2O[C@@](CO)(C3CC3)[C@@H](O)[C@@H]2F)c(=O)n1` [Compound 121, 4-amino-1-[(2R,3S,4R,5R)-5-cyclopropyl-3-fluoro-4-hydroxy-5-(hydroxymethyl)oxolan-2-yl] pyrimidin-2-one], the IC50 is above 1 µM in test [1], above 100 µM in test [2], above 100 µM in test [3] and above 100 µM in test [4].
On to `Nc1nc(=O)n([C@@H]2O[C@@](CO)(C3CC3)[C@@H](O)[C@@H]2F)cc1F` [Compound 122, 4-amino-1-[(2R,3S,4R,5R)-5-cyclopropyl-3-fluoro-4-hydroxy-5-(hydroxymethyl)oxolan-2-yl]-5-fluoropyrimidin-2-one], for which the IC50 in test [1] was above 1 µM; in test [2], above 100 µM; in test [3] it was above 100 µM; in test [4], above 100 µM.
Take `Nc1nc(=O)n([C@@H]2O[C@](/C=C\F)(CO)[C@@H](O)[C@@H]2F)cc1F` [Compound 123, 4-amino-5-fluoro-1-((2R,3S,4R,5R)-3-fluoro-5-((Z)-2-fluorovinyl)-4-hydroxy-5-(hydroxymethyl)tetrahydrofuran-2-yl)pyrimidin-2(1H)-one]: the IC50 in test [1] is above 1 µM; in test [2] it was above 100 µM; in test [3], above 100 µM; in test [4], above 100 µM.
On to `Nc1nc(=O)n([C@@H]2O[C@](/C=C/Cl)(CO)[C@@H](O)[C@@H]2F)cc1F` [Compound 131, 4-amino-1-[(2R,3S,4R,5R)-5(E)-(2-chloroethenyl)-3-fluoro-4-hydroxy-5-(hydroxymethyl)oxolan-2-yl]-5-fluoropyrimidin-2-one], for which the IC50 is above 1 µM in test [1], above 100 µM in test [2], above 100 µM in test [3] and above 100 µM in test [4].
In the case of `Nc1nc(=O)n([C@@H]2O[C@@](CO)(CCl)[C@@H](O)[C@@H]2Cl)cc1F` [Compound 137, 4-amino-1-[(2R,3S,4R,5R)-3-chloro-5-(chloromethyl)-4-hydroxy-5-(hydroxymethyl)oxolan-2-yl]-5-fluoropyrimidin-2-one], the IC50 in test [1] is above 1 µM; in test [2], above 100 µM; in test [3] it was above 100 µM; in test [4], above 100 µM.
`C=C=C[C@]1(CO)O[C@@H](n2cnc3c(N)nc(F)nc32)C[C@@H]1O` [Compound 164, (2R,3S,5R)-5-(6-amino-2-fluoropurin-9-yl)-2-(hydroxymethyl)-2-(propa-1,2-dien-1-yl) oxolan-3-ol]: the IC50 in test [1] was above 1 µM; in test [2], above 100 µM; in test [3], above 100 µM; in test [4], above 100 µM.
